Read-outs that look alike come from different tables or passages of the source.

The record followed here is paper PMC8125647, “A Validated LC–MS/MS Assay for the Simultaneous Quantification of the FDA-Approved Anticancer Mixture (Encorafenib and Binimetinib): Metabolic Stability Estimation” (Molecules, 2021).

Data set [1] is described as follows: Solubility in DMSO (stock preparation). It is filed as physicochemical. Conditions: stocks at 1 mg/mL. The method, then:
We subsequently conducted serial dilution of the stock solutions with the optimized mobile phase to obtain stocks (S1) for ENF and BNB at a 100 µg/mL concentration. The S1 stocks were then serially diluted with mobile phase to obtain stocks (S2) for ENF and BNB at a 10 µg/mL concentration. The AVB stock was dissolved in DMSO to obtain a 100 µg/mL concentration that was then serially diluted with the mobile phase to obtain a stock (S3) of AVB at a 1 µg/mL concentration.

The nature of data set [2]: Metabolic stability after incubation with human liver microsomes (LC-MS/MS). It is filed as in vitro ADME. Conditions: for Slope (rate constant of disappearance, ln % remaining vs time): HLM; for half-life at 1 µM / microsomal CLint at 1 µM: human, human liver microsomes, HLM 1 mg/mL; for half-life at 1 µM: NADPH 1 mM, 37 °C, read-out: in vitro t1/2 (half-life); for microsomal CLint at 1 µM: read-out: CLint (intrinsic clearance). The method, then: The slope of each regression equation was used to estimate the in vitro t1/2 using the following equations:(1) In vitro t 1/2=ln2/slope (2) In vitro t 1/2=0.693/slope
Similarly, the CLint of ENF and BNB was calculated following the in vitro t1/2 method (15) using the following equation:(3) CLint, =0.693/in vitro t 1/2. µL incubation/mg microsomes (4) CLint, =0.693/in vitro t 1/2. 1000 /1
BNB and ENF concentration during HLM incubation was adjusted to 1 µM to ensure that it was less than the Michaelis–Menten constant and constructed a linear relationship between the ratio of metabolism and incubation time. HLMs (1 mg/mL) in phosphate buffer were used to confirm the absence of nonspecific protein binding. We performed metabolic stability assessments for ENF and BNB by measuring the decrease in ENF and BNB concentrations after incubation with an HLM matrix. One micromole from ENF and BNB was incubated with HLM (1 mg protein in 1 mL phosphate buffer) in triplicate. The metabolic reaction medium was phosphate buffer (pH 7.4) containing 3.3 mM MgCl2. The metabolic mixture was pre-incubated in a 37 °C water bath for 10 min for temperature conditioning. NADPH (1 mM) was used for the initiation of the metabolic reaction, after which 2 mL ACN was used to terminate the reaction at specific time intervals (0, 1, 2.5, 7.5, 15, 30, and 50 min), allowing us to establish metabolic stability curves for ENF and BNB. We conducted this metabolic experiment for ENF alone, BNB alone, and a mixture of ENF and BNB to evaluate the metabolic stability of BNB and ENF alone and combined. The proportion of BNB and ENF remaining either alone or combined was plotted versus incubation time. From this plot, time points in the linear range were selected to plot the natural logarithm (ln) of the remaining proportions of ENF and BNB versus time. The slope of the linear part indicated the rate constant for ENF and BNB disappearance that was used for in vitro t1/2 calculation using equation (1). Then, ENF and BNB CLint values, either alone or combined, were calculated by applying the following Equation (3).

The nature of data set [3]: Stability in deactivated HLM matrix under laboratory storage conditions. It is filed as physicochemical. The protocol: We evaluated the stability of ENF and BNB in deactivated HLM matrix (1 mg protein/1 mL phosphate buffer) under common laboratory storage conditions. Analyte stability evaluation was performed in different conditions: Room temperature for 8 h, three freeze–thaw cycles, storage at 4 °C for 24 h, and storage at −20 °C for 30 d. Measured values were 96.55–101.64% for ENF and 96.79–100.05% for BNB. Stability data for ENF and BNB are described in Table 4. […] The stability data reveal that the LC–MS/MS method could be successfully used for assaying ENF and BNB without noticeable loss.
The accuracy and precision of the proposed method were investigated inter- and intra-day. The intra- and inter-day accuracy and precision values were calculated according to USFDA guidelines. The stability of ENF and BNB in different conditions, room temperature for 8 h, three freeze–thaw cycles, and storage at 4 °C for 24 h and at −20 °C for 30 d, were examined.

Where [4] appears, read: pH 7.4, in mixture of ENF and BNB.
The mark [5] stands for this setting: room temperature for 8 h, 15 ng/mL.
The mark [6] stands for this setting: room temperature for 8 h, 150 ng/mL.
[7] abbreviates: room temperature for 8 h, 400 ng/mL.
Setting [8] is: stored at 4 °C for 24 h, 400 ng/mL.
Where [9] appears, read: stored at −20 °C for 30 days, 15 ng/mL.
Setting [10] is: stored at −20 °C for 30 days, 150 ng/mL.
Setting [11] is: stored at −20 °C for 30 days, 400 ng/mL.
Setting [12] is: three freeze–thaw cycles, 15 ng/mL.
The mark [13] stands for this setting: three freeze–thaw cycles, 150 ng/mL.
[14] abbreviates: three freeze–thaw cycles, 400 ng/mL.

Regarding `C=CC(=O)Nc1cccc(Oc2nc(Nc3ccc(N4CCN(C)CC4)c(F)c3)nc3[nH]ccc23)c1` [AVB, avitinib], the “Solubility in DMSO” value in data set [1] was “freely soluble”.
Consider `Cn1cnc2c(F)c(Nc3ccc(Br)cc3F)c(C(=O)NOCCO)cc21` [BNB, binimetinib], for which the “Slope (rate constant of disappearance, ln % remaining vs time)” value in data set [2] (drug alone) worked out at 0.0115; in data set [2] (in mixture of ENF and BNB), 0.0119. Besides, the half-life at 1 µM in data set [2] (pH 7.4, drug alone) came out at 60.3 min; in data set [2] (setting [4]), 58.2 min. Besides, the microsomal CLint at 1 µM in data set [2] (pH 7.4, drug alone) amounted to 11.5 µL/min/mg; in data set [2] (setting [4]) it was 11.9 µL/min/mg. The Recovery % was determined as 99.25% in data set [3] (setting [5]); 98.25% in data set [3] (setting [6]); 98.85% in data set [3] (setting [7]); 100.05% in data set [3] (stored at 4 °C for 24 h, 15 ng/mL); 97.59% in data set [3] (stored at 4 °C for 24 h, 150 ng/mL); 99.33% in data set [3] (setting [8]). Also, the Recovery % in data set [3] (setting [9]) is 96.72%; in data set [3] (setting [10]), 97.72%; in data set [3] (setting [11]), 98.78%; in data set [3] (setting [12]), 98.32%; in data set [3] (setting [13]) it was 96.79%; in data set [3] (setting [14]), 97.48%. Also, the “Solubility in DMSO” value in data set [1] was “freely soluble”.
`COC(=O)N[C@@H](C)CNc1nccc(-c2cn(C(C)C)nc2-c2cc(Cl)cc(NS(C)(=O)=O)c2F)n1` [ENF, encorafenib]: the “Slope (rate constant of disappearance, ln % remaining vs time)” value in data set [2] (drug alone) stood at 0.0161; in data set [2] (in mixture of ENF and BNB), 0.0151. Moreover, the half-life at 1 µM in data set [2] (pH 7.4, drug alone) came out at 43.1 min; in data set [2] (setting [4]), 45.9 min. For the same compound, the microsomal CLint at 1 µM stood at 16.1 µL/min/mg in data set [2] (pH 7.4, drug alone) and 15.1 µL/min/mg in data set [2] (setting [4]). The “Stability, measured values over all storage conditions” value in data set [3] (room temperature 8 h, three freeze–thaw cycles, 4 °C 24 h, −20 °C 30 d) was 96.55–101.64%. Also, the Recovery % is 101.64% in data set [3] (setting [5]); 100.55% in data set [3] (setting [6]); 101.46% in data set [3] (setting [7]); 98.21% in data set [3] (setting [8]); 100.18% in data set [3] (setting [9]); 96.55% in data set [3] (setting [10]). For the same compound, the Recovery % in data set [3] (setting [11]) is recorded as 98.41%; in data set [3] (setting [12]), 97.37%; in data set [3] (setting [13]), 97.22%; in data set [3] (setting [14]) it was 99.66%. In addition, the “Solubility in DMSO” value in data set [1] was “freely soluble”.
